Reference: US8735398B2 (Bristol-Myers Squibb Company, priority 2009, dated 2014)
Like-named read-outs stand apart in the source and are kept apart here.

Tested on: HCV 1b genotype
Assay: HCV replicon assay (HCV-neo replicon cells, wild-type)
Format: cell-based, Hepatitis C virus
Details: HCV 1b genotype replicon
In short: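 HCV-neo replicon cells (wild-type) and replicon cells carrying NS5A resistance substitutions were treated with compounds; assay per O'Boyle et al. 2005, with luciferase-reporter read-out variants also used.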

[1] = Hepatitis C virus, class symbols, read-out: EC50 Range against HCV 1b
[2] = Hepatitis C virus, class symbol, read-out: EC50 Range against HCV 1b
[3] = Hepatitis C virus, read-out: EC50 1b
[4] = class symbol, read-out: EC50 Range against HCV 1b

SMILES | EC50 [1] [nM] | EC50 [2] [nM] | also measured
O=C(Nc1ccc(-c2cnc(-c3ccc(NC(=O)[C@@H]4C[C@@H](O)CN4C(=O)c4cccs4)cc3)o2)cc1)[C@@H]1C[C@@H](O)CN1C(=O)c1cccs1 [XY-54, (2S,4R,2′S,4′R)-N,N′-(1,3-oxazole-2,5-diyldi-4,1-phenylene)bis(4-hydroxy-1-(2-thienylcarbonyl)-2-pyrrolidinecarboxamide)] | 1000 to 10000 | – | –
O=C(Nc1ccc(-c2cnc(-c3ccc(NC(=O)[C@@H]4CCCN4C(=O)C4CCCCC4)cc3)o2)cc1)[C@@H]1CCCN1C(=O)C1CCCCC1 [XY-15, (2S,2′S)-N,N′-(1,3-oxazole-2,5-diyldi-4,1-phenylene)bis(1-(cyclohexylcarbonyl)-2-pyrrolidinecarboxamide)] | 100 to 999 | – | –
O=C(Nc1ccc(-c2cnc(-c3ccc(NC(=O)[C@@H]4CCCN4C(=O)c4cccs4)cc3)o2)cc1)[C@@H]1CCCN1C(=O)c1cccs1 [XY-1, (2S,2′S)-N,N′-(1,3-oxazole-2,5-diyldi-4,1-phenylene)bis(1-(2-thienylcarbonyl)-2-pyrrolidinecarboxamide)] | 100 to 999 | – | –
COc1cc(C(=O)N2CCC[C@H]2C(=O)Nc2ccc(-c3nnc(-c4ccc(NC(=O)[C@@H]5CCCN5C(=O)c5cc(Cl)nc(OC)c5)cc4)o3)cc2)cc(Cl)n1 [RK-40, (2S,2′S)-N,N′-(1,3,4-oxadiazole-2,5-diyldi-4,1-phenylene)bis(1-(2-chloro-6-methoxyisonicotinoyl)-2-pyrrolidinecarboxamide)] | 1000 to 10000 | – | –
CC(=O)N1CCC[C@H]1C(=O)Nc1ccc(-c2nnc(-c3ccc(NC(=O)[C@@H]4CCCN4C(=O)Cc4cccs4)cc3)o2)cc1 [Example D-62, (2S)-1-acetyl-N-[4-[5-[4-[[[(2S)-1-(2-thienylacetyl)-2-pyrrolidinyl]carbonyl]amino]phenyl]-1,3,4-oxadiazol-2-yl]phenyl]-2-pyrrolidinecarboxamide] | – | 1000 to 10000 | EC50 [3]: 3470 nM
O=C(Nc1ccc(-c2nc[nH]c2-c2ccc(NC(=O)[C@@H]3CCCN3C(=O)c3cc4ccccc4o3)cc2)cc1)[C@@H]1CCCN1C(=O)c1cc2ccccc2o1 [JG-51, (2S,2′S)-N,N′-(1H-imidazole-4,5-diyldi-4,1-phenylene)bis(1-(1-benzofuran-2-ylcarbonyl)-2-pyrrolidinecarboxamide)] | – | 100 to 999 | –
CC(C)(C)OC(=O)N1CCCC1C(=O)N1CCCC1C(=O)Nc1ccc(-c2cnc(-c3ccc(NC(=O)C4CCCN4C(=O)C4CCCN4C(=O)OC(C)(C)C)cc3)o2)cc1 [Example D-27, di-tert-butyl (2S,2′S)-2,2′-(1,3-oxazole-2,5-diylbis(4,1-phenylenecarbamoyl(2S)-2,1-pyrrolidinediylcarbonyl))di(1-pyrrolidinecarboxylate)] | – | – | EC50 [4]: 1000 to 10000 nM
O=C(Nc1ccc(-c2cc(-c3ccc(NC(=O)[C@@H]4CCCN4C(=O)c4ccncc4)cc3)[nH]n2)cc1)[C@@H]1CCCN1C(=O)c1ccncc1 [OL-34, (2S,2′S)-N,N′-(1H-pyrazole-3,5-diyldi-4,1-phenylene)bis(1-isonicotinoyl-2-pyrrolidinecarboxamide)] | – | 1000 to 10000 | –
CC(=O)N1CCC[C@H]1C(=O)Nc1ccc(-c2cc(-c3ccc(NC(=O)[C@@H]4CCCN4C(=O)Cc4ccccc4)cc3)n[nH]2)cc1 [OL-36, (2S)-1-acetyl-N-(4-(3-(4-((((2S)-1-(phenylacetyl)-2-pyrrolidinyl)carbonyl)amino)phenyl)-1H-pyrazol-5-yl)phenyl)-2-pyrrolidinecarboxamide] | – | 100 to 999 | –
O=C(Nc1ccc(-c2n[nH]nc2-c2ccc(NC(=O)[C@@H]3CCCN3C(=O)OCc3ccccc3)cc2)cc1)[C@@H]1CCCN1C(=O)OCc1ccccc1 [OL-19, (2S,2′S)-2,2′-[1H-1,2,3-triazole-4,5-diylbis(4,1-phenyleneiminocarbonyl)]bis-1-pyrrolidinecarboxylic acid, bis(phenylmethyl) ester] | – | 4.57 to 99 | –
COc1cccc(CC(=O)N2CCC[C@H]2C(=O)Nc2ccc(-c3cnc(-c4ccc(NC(=O)[C@@H]5CCCN5C(=O)Cc5cccc(OC)c5)cc4)o3)cc2)c1 [XY-3, (2S,2′S)-N,N′-(1,3-oxazole-2,5-diyldi-4,1-phenylene)bis(1-((3-methoxyphenyl)acetyl)-2-pyrrolidinecarboxamide)] | 100 to 999 | – | EC50 [3]: 321 nM
O=C(Nc1ccc(-c2nnc(-c3ccc(NC(=O)[C@H]4CCCCN4C(=O)OCc4ccccc4)cc3)o2)cc1)[C@H]1CCCCN1C(=O)OCc1ccccc1 [RK-5, dibenzyl (2R,2′R)-2,2′-(1,3,4-oxadiazole-2,5-diylbis(4,1-phenylenecarbamoyl))di(1-piperidinecarboxylate)] | – | 1000 to 10000 | –
O=C(Nc1ccc(-c2cc(-c3ccc(NC(=O)[C@@H]4CCCN4C(=O)[C@H](O)c4ccccc4Cl)cc3)[nH]n2)cc1)[C@@H]1CCCN1C(=O)[C@H](O)c1ccccc1Cl [JG-36, (2S,2′S)-N,N′-(1H-pyrazole-3,5-diyldi-4,1-phenylene)bis(1-((2R)-2-(2-chlorophenyl)-2-hydroxyacetyl)-2-pyrrolidinecarboxamide)] | – | < 4.57 | –
C[C@H](NC(=O)c1cccc(F)n1)C(=O)Nc1ccc(-c2nnc(-c3ccc(NC(=O)[C@H](C)NC(=O)c4cccc(F)n4)cc3)o2)cc1 [RK-29, N,N′-(1,3,4-oxadiazole-2,5-diylbis(4,1-phenyleneimino((2S)-1-oxo-1,2-propanediyl)))bis(6-fluoro-2-pyridinecarboxamide)] | – | 1000 to 10000 | –
O=C(Nc1ccc(-c2nc[nH]c2-c2ccc(NC(=O)[C@@H]3C[C@@H](O)CN3C(=O)Cc3ccccc3)cc2)cc1)[C@@H]1C[C@@H](O)CN1C(=O)Cc1ccccc1 [OL-11] | – | 100 to 999 | –
CC(C)(CCl)C(=O)N1CCC[C@H]1C(=O)Nc1ccc(-c2cnc(-c3ccc(NC(=O)[C@@H]4CCCN4C(=O)C(C)(C)CCl)cc3)o2)cc1 [XY-17, (2S,2′S)-N,N′-(1,3-oxazole-2,5-diyldi-4,1-phenylene)bis(1-(3-chloro-2,2-dimethylpropanoyl)-2-pyrrolidinecarboxamide)] | 100 to 999 | – | –
O=C(Nc1ccc(-c2nc[nH]c2-c2ccc(NC(=O)[C@@H]3CCCN3C(=O)[C@H](O)c3ccccc3)cc2)cc1)[C@@H]1CCCN1C(=O)[C@H](O)c1ccccc1 [JG-43, (2S,2′S)-N,N′-(1H-imidazole-4,5-diyldi-4,1-phenylene)bis(1-((2R)-2-hydroxy-2-phenylacetyl)-2-pyrrolidinecarboxamide)] | – | < 4.57 | –
O=C(Nc1ccc(-c2cnc(-c3ccc(NC(=O)C4CC5CC5N4C(=O)C4CCCO4)cc3)o2)cc1)C1CC2CC2N1C(=O)C1CCCO1 [CB-7, (1S,3S,5S,1′S,3′S,5′S)-N,N′-(1,3-oxazole-2,5-diyldi-4,1-phenylene)bis(2-((2R)-tetrahydro-2-furanylcarbonyl)-2-azabicyclo[3.1.0]hexane-3-carboxamide)] | – | – | EC50 [4]: 100 to 999 nM
CC(C)(C)OC(=O)N1CCCC1(C)C(=O)N1CCC[C@H]1C(=O)Nc1ccc(-c2cnc(-c3ccc(NC(=O)[C@@H]4CCCN4C(=O)C4(C)CCCN4C(=O)OC(C)(C)C)cc3)o2)cc1 (stereo partly drawn) [Example D-30, di-tert-butyl 2,2′-(1,3-oxazole-2,5-diylbis(4,1-phenylenecarbamoyl(2S)-2,1-pyrrolidinediylcarbonyl))bis(2-methyl-1-pyrrolidinecarboxylate)] | – | – | EC50 [4]: 1000 to 10000 nM
COCCOCC(=O)N1CCC[C@H]1C(=O)Nc1ccc(-c2cnc(-c3ccc(NC(=O)[C@@H]4CCCN4C(=O)COCCOC)cc3)o2)cc1 [XY-8, (2S,2′S)-N,N′-(1,3-oxazole-2,5-diyldi-4,1-phenylene)bis(1-((2-methoxyethoxy)acetyl)-2-pyrrolidinecarboxamide)] | 1000 to 10000 | – | –
O=C(O)Cc1nc(-c2ccc(NC(=O)[C@@H]3CCCN3C(=O)OCc3ccccc3)cc2)c(-c2ccc(NC(=O)[C@@H]3CCCN3C(=O)OCc3ccccc3)cc2)o1 [OL-3, 4,5-bis[4-[[[(2S)-1-[(phenylmethoxy)carbonyl]-2-pyrrolidinyl]carbonyl]amino]phenyl]-2-oxazoleacetic acid] | – | 1000 to 10000 | –
CCOC(=O)c1cc(C(O)C(=O)N2CCC[C@H]2C(=O)Nc2ccc(-c3cnc(-c4ccc(NC(=O)[C@@H]5CCCN5C(=O)C(O)c5c[nH]c(C(=O)OCC)c5)cc4)o3)cc2)c[nH]1 (stereo partly drawn) [Example D-12, diethyl 4,4′-(2,2′-(2S,2′S)-2,2′-(4,4′-(oxazole-2,5-diyl)bis(4,1-phenylene))bis(azanediyl)bis(oxomethylene)bis(pyrrolidine-2,1-diyl)bis(1-hydroxy-2-oxoethane-2,1-diyl))bis(1H-pyrrole-2-carboxylate)] | – | – | EC50 [4]: 1000 to 10000 nM; EC50 (read-out: EC50 1b): 2360 nM
Cc1cccc(CC(=O)N2C[C@H](OC(C)(C)C)C[C@H]2C(=O)Nc2ccc(-c3cnc(-c4ccc(NC(=O)[C@@H]5C[C@@H](OC(C)(C)C)CN5C(=O)Cc5cccc(C)c5)cc4)o3)cc2)c1 [XY-69, (2S,4R,2′S,4′R)-N,N′-(1,3-oxazole-2,5-diyldi-4,1-phenylene)bis(4-tert-butoxy-1-((3-methylphenyl)acetyl)-2-pyrrolidinecarboxamide)] | 100 to 999 | – | –
CC(C)(C)O[C@@H]1C[C@@H](C(=O)Nc2ccc(-c3cnc(-c4ccc(NC(=O)[C@@H]5C[C@@H](OC(C)(C)C)CN5C(=O)[C@H]5CCCO5)cc4)o3)cc2)N(C(=O)[C@H]2CCCO2)C1 [XY-68, (2S,4R,2′S,4′R)-N,N′-(1,3-oxazole-2,5-diyldi-4,1-phenylene)bis(4-tert-butoxy-1-((2R)-tetrahydro-2-furanylcarbonyl)-2-pyrrolidinecarboxamide)] | 100 to 999 | – | –
O=C(Nc1ccc(-c2cnc(-c3ccc(NC(=O)[C@@H]4CCCN4C(=O)C(O)c4c[nH]c5ncccc45)cc3)o2)cc1)[C@@H]1CCCN1C(=O)C(O)c1c[nH]c2ncccc12 (stereo partly drawn) [Example D-15, (2S,2′S)-N,N′-(4,4′-(oxazole-2,5-diyl)bis(4,1-phenylene))bis(1-(2-hydroxy-2-(1H-pyrrolo[2,3-b]pyridin-3-yl)acetyl)pyrrolidine-2-carboxamide)] | – | – | EC50 [4]: 1000 to 10000 nM; EC50 (read-out: EC50 1b): 6830 nM
O=C(C(=O)N1CCC[C@H]1C(=O)Nc1ccc(-c2cc(-c3ccc(NC(=O)[C@@H]4CCCN4C(=O)C(=O)c4ccccc4)cc3)[nH]n2)cc1)c1ccccc1 [JG-31, (2S,2′S)-N,N′-(1H-pyrazole-3,5-diyldi-4,1-phenylene)bis(1-(oxo(phenyl)acetyl)-2-pyrrolidinecarboxamide)] | – | 4.57 to 99 | –
